Blank lines part the entries; values can stand above or below the substance they belong to.
What was measured:
mouse macrophages = experiment: eGFP mRNA transfection of mouse macrophages with or without mannose-dendrimer coat; type: cell-based; settings: GSCG1,2-RHL nanoparticle NP=8:1, DOTMA/DOPE:mRNA w/w 10:1, coat 1:1 (1 eq) coating:mRNA; FIG. 6
Protocol: J774.2 cells were subcultured in DMEM supplemented with 2 mM glutamax and 10% heat-inactivated FBS (complete media). Twice a week (at about 70-80% confluency; every 3-4 days), cells were scrapped and collected into Falcon tubes, and pelleted at 400 g for 5 minutes. The cells were resuspended in complete media, counted and seeded into 10 cm dishes at a density of 1.7-2.5E+4 cells/cm^2. For M2 polarisation, the cells were treated with complete media supplemented with 20 ng/ml recombinant murine IL-4 and 20 ng/ml recombinant murine IL-13 (activation media) over a 48 hr period. After 24 hrs in IL-4 and IL-13 containing medium, the cells scrapped and collected as described above. The cells were seeded into 24-well plates at a density of 1.2E+5 cells/well in 0.5mls/well complete media containing 20 ng/ml IL-4 and IL-13.
The media overlaying the polarised J774.2 cells was aspirated and exchanged with 480 ul/well activation media. 120 ul/well of each test condition (total volume was 600 ul/well) was added (test conditions were prepared in 25 mM HEPES solution). Control conditions were prepared consisting of neat 25 mM HEPES and an mRNA control. Between addition of each test condition the plate was shaken back and forth to ensure mixing. The plate was placed into the incubator overnight.
Staining and fixation for both human and mouse-derived macrophages was carried out as follows. After 24 hrs the media overlaying each test condition was transferred to corresponding 1.5 ml Eppendorf tubes (in order to conserve cells that may have died during transfection). Cells were then washed with 300 ul/well PBS which was transferred to the corresponding tubes. 500 ul/well 5 mM EDTA was added to each well and the plate(s) transferred to the 37° C. incubator for 5-10 minutes until the cells started to detach. Cells were then transferred from the plate to the corresponding 1.5 ml tubes. Cells were pelleted down at 300 g for 5 minutes and resuspended in 100 ul/sample fixable Live/Dead Aqua stain. ArC beads were stained with 3 ul neat Live/Dead Aqua for compensation. These cells were stained on ice for 30 minutes. Following this, the tubes were spun down at 300 g for 5 minutes. The supernatant was discarded, and the cells were resuspended in 500 ul/sample PBS. Negative ArC beads were added to the compensation control. GFP compensation beads were dispensed into separate tube as the GFP compensation control. The samples were spun down at 300 g for 5 minutes. Samples were then resuspended in 100 ul/sample of Reagent A from the Invitrogen Fix/Perm kit and left at room temperature for 15 minutes. The samples were spun down at 400 g for 5 minutes and the supernatant was disposed. The samples were once again washed with PBS and spun down at 300 g for 5 minutes. The cells were finally resuspended in 400 ul/sample FACS buffer (PBS+2 mM EDTA+0.5% w/v BSA) for flow analysis. Samples were stored in the fridge prior to flow analysis and run within 24 hrs of fixation.
12 μl of a nanoparticle formulation was aliquoted into a sterile 0.5 ml polypropylene tube. 4 μl of a 0.3 mg/ml, 0.6 mg/ml or 1.8 mg/ml solution of (Ac-EEEE)2[…][(S-S)-α-D-Thiomannose] (for a mRNA:coating mass ratio of 1:0.5, 1:1 or 1:3, respectively) was mixed by rapidly pipetting up and down 10-15 times, and allowed to incubate for 5 minutes.
Macrophages, and in particular M2-phenotype macrophages, are known to have enriched surface expression of the receptor CD206, the ligand for which is mannose.

lung cells = settings: GSCG1,2-RL, 3-LR N:P=0.16:1, DOTMA:DOPE 10:1, coat 3 eq; 2.25 mg/kg IV, 4 hours; FIG. 13
Protocol: Six week old, female C57Bl/6 mice were supplied from Envigo UK. The mice were acclimatized in the animal facility for at least 7 days prior to use. […] The mice were randomised into 4 groups of n=3 when the tumours reached 0.15 cm3 (calliper measurements) and were dosed IV at 2.25 mg/kg or 3 mg/kg.
Four hours post dosing of the formulations, the animals were culled, and tissues were harvested. Terminal blood was collected in EDTA tubes and treated with Red Blood Cell Lysing Buffer HYBRI-MAX (Merck) prior to antibody staining. Spleens were dissociated by pushing through a 70 uM cell strainer using a syringe plunge. The cell suspension was then treated with Red Blood Cell Lysing Buffer HYBRI-MAX (Merck) prior to antibody staining. Lung and tumour samples were cut into small pieces and were enzymatically digested using the Lung and Tumor Dissociation Kit (mouse) and the gentleMACS™ Octo Dissociator with Heaters (Miltenyi) following the manufacturer's instructions.
The final cell suspensions were blocked with mouse Fc block prior to antibody staining. Cells were incubated with the antibody master mix at 4 C for 20 min and then they were fixed using 4% PFA for 30 min RT. They were analysed using the Attune NxT flow cytometer (Thermo Fisher) within 24 hours of fixing and data was analysed using the FlowJo_v10.8.1 software. Compensation was adjusted using the Attune compensation beads.

myeloid cells in tumour = experiment: In vivo uptake of Alexafluor488 tagged mRNA by cells in tumour of MC38 bearing mice; set-up: species or system C57Bl/6 mice; settings: GSCG1,2-RL, 3-LR N:P=0.16:1, DOTMA:DOPE 10:1, coat 3 eq; 2.25 mg/kg IV, 4 hours; FIG. 39
Text: Compensation was adjusted using the Attune compensation beads.

lung and spleen = experiment: Luciferase mRNA expression in mouse tissues after intravenous administration (bioluminescence); type: in vivo, Balb/c mice; settings: 6 hours, DOTMA/DOPE w/w=23:1 to mRNA, dendrimers NP=0.6:1, FIG. 11
Protocol: All animal procedures were conducted following the Animal Research Reporting of In Vivo Experiments and approved by the UK Home Office for the conduct of regulated procedures under license. For the data underlying FIG. 11, Balb/c mice aged 4 weeks were purchased from Jackon's Laboratory and left to acclimate in the new housing environment for 1-week upon their arrival. All mice were weighed and warmed for 15 min at 37 C in a heating chamber. The formulations were delivered intravenously (5 mL/kg) via the tail vein using 30 G insulin syringes (BD biosciences).
All mice were imaged 6 hours post injection. BLI was performed using an IVIS Lumina II (Perkin Elmer) imaging system. Mice were administered D-luciferin (GoldBio) at a dose of 10 uL/g. Mice were anaesthetised in a chamber with 2.5% isoflurane and then placed on a heated imaging platform while being maintained on 2.5% isoflurane. For the data underlying FIG. 11, mice were imaged 10 min post administration of D-luciferin with an exposure time set at 45 sec to ensure the signal acquired was within an effective detection range (binning medium). Bioluminescence signal was quantified by measuring photon flux (photons/s) using the Living Image software (Perkin Elmer). […] The organs were placed in the centre of imaging platform (Lumina II system) and signal was measured using the acquisition settings detailed above. […]

[1] = Dynamic light scattering: hydrodynamic size and polydispersity index (PDI) of nanoparticles; type: physicochemical
Protocol: (§1) The hydrodynamic size was measured using the dynamic light scattering (DLS) technique. DLS is a very sensitive, non-invasive method to measure size and size distribution of nanoparticles in a liquid. […] Analysing these intensity fluctuations allows us to calculate the velocity of the Brownian motion. The size of the nanoparticles can be determined by using the Stokes-Einstein relationship. With the latest technology, it can measure nanoparticles smaller than 1 nm.
PDI is used to estimate the average uniformity of a particle solution, The method of cumulants is a standard technique for analysing DLS data on sample polydispersity. PDI is a number calculated from a 2 parameter fit to the correlation data (the cumulants analysis). The cumulants analysis is used to evaluate the autocorrelation function generated by a DLS experiment. The calculation is defined in ISO 13321 and ISO 22412. PDI values greater than 0.7 indicate that the sample has a very broad size distribution and is not suitable for the DLS technique. The calculations for these parameters are defined in the ISO standard document 13321:1996 E and ISO 22412:2008.
as §1, with “Size, zeta potential and polydispersity index (PDI) measurement: The hydrodynamic” for “The hydrodynamic”, “scattering (DLS) technique using the Zetasizer Advance Series—Pro (Malvern Panalytical Ltd, Malvern, UK) according to the manufacturer's instructions. DLS is” for “scattering (DLS) technique. DLS is”
The data obtained with DLS measurements can also be used to calculate the PDI of particle in solution. PDI is used to estimate the average uniformity of a particle solution. The method of cumulants is a standard technique for analysing DLS data on sample polydispersity. PDI is a number calculated from a 2 parameter fit to the correlation data (the cumulants analysis). The cumulants analysis is used to evaluate the autocorrelation function generated by a DLS experiment. The calculation is defined in ISO 13321 and ISO 22412. PDI values greater than 0.7 indicate that the sample has a very broad size distribution and is not suitable for the DLS technique. The calculations for these parameters are defined in the ISO standard document 13321:1996 E and ISO 22412:2008.
To measure the size and PDI, the samples were diluted 16× in 25 mM HEPES buffer (5 μl sample+75 μl buffer). Parameters: reference material: polystyrene latex, dispersant: water, 25° C. The PDI measurements were measured in nanoparticles comprising a dendrimer:nucleic acid NP ratio of 8:1.

human THP-1 cells = experiment: eGFP mRNA transfection of human THP-1 macrophages, flow cytometry; type: cell-based; settings: GSCG1,2-RL, 3-LR NP=0.16:1, GSCG1-LRLR NP=0.6, GSCG1,2-RHL NP=5:1, GSCG1,2-RF, 3HL NP=0.6:1, RHCG1-R NP=0.6:1, DOTMA:DOPE w/w 10:1, lipid-only w/w 3.2:1, FIG. 3
Protocol: THP-1 cells (a human leukaemia monocytic cell line) were sub-cultured in RPMI (with glutamax)+10% heat inactivated FBS (complete media) at 3E+5 cells/ml and passaged every 3-4 days. For macrophage polarisation 7.5E+6 cells were seeded in T75 flasks in a total of 20 ml complete media containing 5 ng/ml PMA (1:1000 of 5 ug/ml stock). The cells were transferred to the 37° C. incubator for overnight. After 24 hrs, THP-1 cells were washed with complete medium and a fresh flask complete medium (not containing PMA) was overlaid on the cells. After a further 72 hrs, the complete medium was exchanged for fresh complete media containing 20 ng/ml rhlL-4 (1:500 of 10 μg/ml stock). 24 hrs later the cells were harvested by firstly washing the cells with PBS followed by a 5 minute treatment at 37° C. with 5 mM EDTA (diluted in PBS). Cells were spun down at 300 g for 5 minutes and resuspended in a complete medium containing 20 ng/ml rhlL-4 at 2.4E+5 cells/mi. 500 ul of cells were seeded into each well on a 24-well plate and left overnight in the 37° C. incubator.
The medium overlaying the polarised THP-1 cells was aspirated and exchanged with 480 ul/well complete media containing 20 ng/ml rhlL-4. […]
Data were collected using a BD LSRFortessa I analyser running […] software (Beckton Dickinson). All collected data were analysed using FlowJo 10.0 software. […]

Substance: (Ac-EEEE)2KGSGGSGGSC[(S-S)-α-D-Thiomannose] [Mannose-G1-EEEE]
increase of transfection efficiency compared to a non-coated nanoparticle (mouse macrophages): ~10%
uptake by CD206+ cells in the lung versus non-coated nanocarrier and LPX-mRNA (lung cells): more effectively
uptake in the lung cells versus non-coated nanocarrier and LPX-mRNA (lung cells): higher uptake in the lung cells
uptake by CD206+ M2 macrophage cells in tumour versus non-coated nanocarrier and LPX-mRNA (myeloid cells in tumour): more effectively

delivery of luciferase mRNA cargo to lung and spleen (bioluminescence) (lung and spleen): further improved
Polydispersity Index (PDI) ([1]; peptide dendrimer, lipid and mRNA complexes, N:P 8:1, DOTMA/DOPE w/w 10:1 to mRNA): 0.581
Substance: (LRLR)2KGSC-NH2 [GSCG1-LRLR]

PDI ([1]; Table 7, first generation dendrimers for mixed dendrimer nanoparticles): 0.566
Substance: (R)2KRHC-NH2 [RHCG1-R]
transfection efficiency (human THP-1 cells): 30-35%

— patent US20260014278A1, “HYBRID PEPTIDE DENDRIMER SYSTEMS AND EXTRAHEPATIC DELIVERY” (NUNTIUS THERAPEUTICS LIMITED, priority 2022, published 2026)
